Experimental data: ChEMBL document CHEMBL3817834, “Scaffold morphing leading to evolution of 2,4-diaminoquinolines and aminopyrazolopyrimidines as inhibitors of the ATP synthesis pathway” (Medchemcomm, 2016)
Values after ≈ are worked out from the molar mass of the structure shown.

Columns and labels:
Type in all cases: functional
[1] = test system: Mycobacterium tuberculosis; assay: Antimycobacterial activity against isoniazid resistant Mycobacterium tuberculosis isolate 35822 by turbidometric method
[2] = test system: Mycobacterium tuberculosis; assay: Antimycobacterial activity against bedaquiline resistant Mycobacterium tuberculosis harboring I66M mutant by turbidometric method
[3] = test system: Mycobacterium tuberculosis; assay: Antimycobacterial activity against ethambutol resistant Mycobacterium tuberculosis isolate 17003 by turbidometric method
[4] = test system: Mycobacterium tuberculosis; assay: Antimycobacterial activity against bedaquiline resistant Mycobacterium tuberculosis harboring A63P mutant by turbidometric method
[5] = test system: Mycobacterium tuberculosis; assay: Antimycobacterial activity against ofloxacin resistant Mycobacterium tuberculosis isolate 12119 by turbidometric method
[6] = test system: Mycobacterium tuberculosis; assay: Antimycobacterial activity against rifampicin resistant Mycobacterium tuberculosis isolate 19000 by turbidometric method
[7] = test system: Mycobacterium tuberculosis; assay: Antimycobacterial activity against streptomycin resistant Mycobacterium tuberculosis isolate 35820 by turbidometric method

CN(C)CCOc1ncc(Nc2cc(-c3ccccc3)nc3cc(-c4ccc(F)cc4)nn23)cc1F
MIC80 [1]: 12.5 µM (≈ 6.08 µg/mL)
MIC=>80 [2]: 6.3 µM (≈ 3.07 µg/mL)
MIC80 [3]: 6.3 µM (≈ 3.07 µg/mL)
MIC=>80 [4]: 12.5 µM (≈ 6.08 µg/mL)
MIC80 [5]: 12.5 µM (≈ 6.08 µg/mL)
MIC80 [6]: 6.3 µM (≈ 3.07 µg/mL)
MIC80 [7]: 25 µM (≈ 12.2 µg/mL)

CN(C)CCOc1ncc(Nc2cc(-c3ccccc3)nc3cc(-c4ccc(F)cc4)[nH]c23)cc1F
MIC80 [1]: 3.1 µM (≈ 1.51 µg/mL)
MIC=>80 [2]: 3.1 µM (≈ 1.51 µg/mL)
MIC80 [3]: 6.3 µM (≈ 3.06 µg/mL)
MIC=>80 [4]: 3.1 µM (≈ 1.51 µg/mL)
MIC80 [5]: 25 µM (≈ 12.1 µg/mL)
MIC80 [6]: 3.1 µM (≈ 1.51 µg/mL)
MIC80 [7]: 25 µM (≈ 12.1 µg/mL)

COc1cc2nc(N3CCC(c4ccccc4Cl)C3)cc(Nc3cnc(OCCN(C)C)c(F)c3)c2cc1OC (stereo not given)
MIC80 [1]: 6.3 µM (≈ 3.57 µg/mL)
MIC=>80 [2]: 6.3 µM (≈ 3.57 µg/mL)
MIC80 [3]: 6.3 µM (≈ 3.57 µg/mL)
MIC=>80 [4]: 3.1 µM (≈ 1.75 µg/mL)
MIC80 [5]: 12.5 µM (≈ 7.08 µg/mL)
MIC80 [6]: 3.1 µM (≈ 1.75 µg/mL)
MIC80 [7]: 12.5 µM (≈ 7.08 µg/mL)

CN(C)CCOc1ncc(Nc2cc(N3CCC(c4ccccc4Cl)C3)nc3cc(F)c(F)cc23)cc1F (stereo not given)
MIC80 [1]: 3.1 µM (≈ 1.68 µg/mL)
MIC=>80 [2]: 3.1 µM (≈ 1.68 µg/mL)
MIC80 [3]: 6.3 µM (≈ 3.41 µg/mL)
MIC=>80 [4]: 3.1 µM (≈ 1.68 µg/mL)
MIC80 [5]: 25 µM (≈ 13.6 µg/mL)
MIC80 [6]: 3.1 µM (≈ 1.68 µg/mL)
MIC80 [7]: 25 µM (≈ 13.6 µg/mL)

COc1nc2ccc(Br)cc2cc1[C@@H](c1ccccc1)[C@@](O)(CCN(C)C)c1cccc2ccccc12 [BEDAQUILINE]
MIC80 [1]: < 2 µM
MIC=>80 [2]: 10 µM (≈ 5.56 µg/mL)
MIC80 [3]: < 2 µM
MIC=>80 [4]: >10 µM
MIC80 [5]: < 2 µM
MIC80 [6]: < 2 µM
MIC80 [7]: < 2 µM

CC[C@@H](CO)NCCN[C@@H](CC)CO [ETHAMBUTOL]
MIC80 [1]: 9.8 µM (≈ 2 µg/mL)
MIC=>80 [2]: 9.8 µM (≈ 2 µg/mL)
MIC80 [3]: > 20 µM
MIC=>80 [4]: 9.8 µM (≈ 2 µg/mL)
MIC80 [5]: 4.9 µM (≈ 1 µg/mL)
MIC80 [6]: 9.8 µM (≈ 2 µg/mL)
MIC80 [7]: 9.8 µM (≈ 2 µg/mL)

NNC(=O)c1ccncc1 [ISONIAZID]
MIC80 [1]: > 15 µM
MIC=>80 [2]: 0.2 µM (≈ 0.0274 µg/mL)
MIC80 [3]: 0.2 µM (≈ 0.0274 µg/mL)
MIC=>80 [4]: 0.2 µM (≈ 0.0274 µg/mL)
MIC80 [5]: 0.2 µM (≈ 0.0274 µg/mL)
MIC80 [6]: 0.2 µM (≈ 0.0274 µg/mL)
MIC80 [7]: 0.2 µM (≈ 0.0274 µg/mL)

CC1COc2c(N3CCN(C)CC3)c(F)cc3c(=O)c(C(=O)O)cn1c23 (stereo not given) [OFLOXACIN]
MIC80 [1]: 0.7 µM (≈ 0.253 µg/mL)
MIC=>80 [2]: 0.7 µM (≈ 0.253 µg/mL)
MIC80 [3]: 0.3 µM (≈ 0.108 µg/mL)
MIC=>80 [4]: 0.7 µM (≈ 0.253 µg/mL)
MIC80 [5]: > 5.6 µM
MIC80 [6]: 0.7 µM (≈ 0.253 µg/mL)
MIC80 [7]: 0.7 µM (≈ 0.253 µg/mL)

CO[C@H]1/C=C/O[C@@]2(C)Oc3c(C)c(O)c4c(O)c(c(/C=N/N5CCN(C)CC5)c(O)c4c3C2=O)NC(=O)/C(C)=C\C=C\[C@H](C)[C@H](O)[C@@H](C)[C@@H](O)[C@@H](C)[C@H](OC(C)=O)[C@@H]1C [RIFAMPIN]
MIC80 [1]: 0.04 µM (≈ 0.0329 µg/mL)
MIC=>80 [2]: 0.04 µM (≈ 0.0329 µg/mL)
MIC80 [3]: 0.04 µM (≈ 0.0329 µg/mL)
MIC=>80 [4]: 0.04 µM (≈ 0.0329 µg/mL)
MIC80 [5]: 0.04 µM (≈ 0.0329 µg/mL)
MIC80 [6]: > 1.2 µM
MIC80 [7]: 0.04 µM (≈ 0.0329 µg/mL)

CN[C@@H]1[C@H](O[C@H]2[C@H](O[C@H]3[C@H](O)[C@@H](O)[C@H](N=C(N)N)[C@@H](O)[C@@H]3N=C(N)N)O[C@@H](C)[C@]2(O)C=O)O[C@@H](CO)[C@H](O)[C@H]1O [STREPTOMYCIN]
MIC80 [1]: 0.3 µM (≈ 0.174 µg/mL)
MIC=>80 [2]: 0.3 µM (≈ 0.174 µg/mL)
MIC80 [3]: 0.3 µM (≈ 0.174 µg/mL)
MIC=>80 [4]: 0.3 µM (≈ 0.174 µg/mL)
MIC80 [5]: 0.3 µM (≈ 0.174 µg/mL)
MIC80 [6]: 0.3 µM (≈ 0.174 µg/mL)
MIC80 [7]: > 11 µM
